From paper PMC2992995, “Characterization and Online Detection of Surfactin Isomers Based on HPLC-MS^n Analyses and Their Inhibitory Effects on the Overproduction of Nitric Oxide and the Release of TNF-α and IL-6 in LPS-Induced Macrophages” (Marine Drugs, 2010) come the findings set out here.

Holding throughout (type): cell-based, murine
Assay [1] concerns TNF-α production induced by LPS in RAW264.7 cells. The assay can be described thus: Inhibition of TNF-α release induced by LPS (ELISA). Particulars: LPS 1 μg/mL, 6 h, samples 1–30 μM, mouse TNF-α ELISA of culture supernatant, means of four experiments. The procedure:
(§1) RAW264.7 cells were incubated in RPMI 1640 medium supplemented with penicillin (100 U/mL), streptomycin (100 μg/mL) and 10% heat inactivated fetal bovine serum at 37 °C in a humidified incubator with 5% CO2.
[…] 100 μL of the culture supernatant was taken out to determine the level of TNF-α and IL-6 using respective enzyme-linked immunosorbent assay kit according to the manufacturer’s recommendations. Hydrocortisone was used as positive control.
Background: ELISA stands for enzyme-linked immunosorbent assay.

For assay [2], the system named is IL-6 production induced by LPS in RAW264.7 cells. The assay can be described thus: Inhibition of IL-6 release induced by LPS (ELISA). Particulars: LPS 1 μg/mL, 6 h, samples 1–30 μM, mouse IL-6 ELISA of culture supernatant, means of four experiments. The procedure:
as §1
Cells were treated by LPS (1 μg/mL) with or without samples (1–9, 1–30 μM) for 6 h. 100 μL of the culture supernatant was taken out to determine the level of TNF-α and IL-6 using respective enzyme-linked immunosorbent assay kit according to the manufacturer’s recommendations. Hydrocortisone was used as positive control.

The subject of assay [3] is NO production induced by LPS in RAW264.7 cells. Nature of the assay: Inhibition of NO production induced by LPS (Griess nitrite assay). Particulars: Mus musculus, LPS 1 μg/mL, 24 h, samples 1–30 μM, Griess reagent, means of four experiments. The procedure: as §1
Nitric oxide was determined by measuring the amount of nitrite in the cell culture supernatant, using Griess reagent (mixture of equal volume of reagent A and reagent B, (A): 1% sulphanilamide; (B): 0.1% naphthylethylene diamine dihydrochloride in 10% H3PO4). Hydrocortisone was used as positive control. RAW264.7 cells were treated by lipopolysaccharides (LPS, 1 μg/mL) with or without samples (1–9, 1–30 μM) for 24 h, then briefly centrifuged. 100 μL of the cell culture supernatant were mixed with 100 μL of Griess reagent, followed by incubation for 10 min at room temperature. The absorbance at 540 nm was measured and the inhibitory rates were calculated by using a standard calibration curve prepared from different concentrations of sodium nitrite.
On the technique in general: Nitrite, measured by Griess reagent, commonly stands in for NO production.

The structures appear in SMILES notation.

The term IC50 denotes the concentration that inhibits the measured activity by half. As to `C[C@]12CCC(=O)C=C1CC[C@@H]1[C@@H]2[C@@H](O)C[C@@]2(C)[C@H]1CC[C@]2(O)C(=O)CO` [Hydrocortisone], the IC50 in assay [1] was found to be 85.6 µM; in assay [2] it was 63.9 µM; in assay [3], 64.3 µM.
